According to patent publication US12115178B2, “Acylated active agents and methods of their use for the treatment of autoimmune disorders” (Flagship Pioneering Innovations V, Inc., priority 2018, dated 2024):

Assays:
AhR = AhR activation in Caco-2 cells through CYP1A1 mRNA expression; conditions: overnight
Experimental: Caco-2 cells from American Type Culture Collection (ATCC) were plated in a sterile tissue culture treated 96-well plate (ThermoFisher) at […], and grown overnight at 37° C., 5% CO2 in DMEM complete (Gibco) in order to achieve confluence. After the incubation medium was aspirated off of the Caco-2 monolayers, tissues were then washed with 200 μL of warmed PBS solution, and subsequently 190 μL of pre-warmed growth medium was added to each well. Compounds of interest were diluted at a 20× concentration in growth medium containing 2% DMSO, and 10 μL of compound solutions were added to respective wells in triplicate. Compounds where incubated overnight at 37° C., 5% CO2. 2-(1′H-indole-3′-carbonyl)-thiazole-4-carboxylic acid methyl ester (ITE) was used as the positive control for AhR activation at 1 and 100 μM concentrations. At the end of the incubation, medium was aspirated off of the Caco-2 cells, and the cells washed with 100 μL of cold PBS solution. RNA was extracted via the TaqMan™ Gene Expression Cells-to-CT™ Kit (ThermoFisher) according to the manufacturers protocol. The QuantStudio 6 Flex (Applied Biosciences) was used to analyze mRNA levels of CYP1A1 using GAPDH as the endogenous control. TaqMan™ probe sets for both genes were acquired from ThermoFisher. Samples were run in triplicate and data was analyzed using the QuantStudio software and reported as linear (Table 1) and log 2(ΔΔCT) values. Statistical analysis was performed using a two-tailed t-test comparing CYP1A1 levels in the presence of each individual compound to the vehicle negative control.

[1] = test system: Primary Human Peripheral Blood Mononuclear Cells (PBMCs); test: Inflammatory signals in LPS-treated primary human PBMCs; assay type: cell-based; conditions: 100 uM, 24 hours
Experimental: Human donor blood (8 mL) was collected in sodium citrate CPT tubes and centrifuged at 1,600×g for 20 minutes at room temperature. Buffy coat containing PBMCs was collected and transferred to a 50 mL conical tube containing 30 mL of RPMI-1640 medium at room temperature (supplemented with penicillin-streptomycin). PBMCs samples were centrifuged at 400×g for 10 minutes at 10° C. The pelleted PBMCs were washed twice in 10 ml of RPMI-1640 medium (supplemented with penicillin-streptomycin), then resuspended in RPMI-1640 medium (supplemented with penicillin-streptomycin, fetal bovine serum, and L-Glutamine). PBMCs were filtered through a 70 micron mesh to remove any cellular debris. […] PBMCs in a 96-well plate were rested for 30 minutes in a 37° C., 5% CO2 incubator, then subsequently treated with 10 μl of indicated compound. After 2 hours 10 μL of LPS (O111:B4) 1 mg/mL was added to test wells. After 24 hours of incubation at 37° C., 5% CO2, 100 μL of cell supernatant was collected and transferred to a 96-well plate (non-tissue treated, flat bottom). The plate was centrifuged at 350×g for 5 minutes at room temperature, and then the clear supernatant transferred to a new 96-well plate (non-tissue treated, flat bottom). The remaining cells were tested for viability using CellTiter-Glo® Luminescent Cell Viability Assay (Promega). The supernatant was analyzed for TNFα, IL-6 and […] Systems), using Luminex Immunoassay Technology (MAGPIX System). Cytokine levels of LPS treated DMSO control samples were set to 100%, and compound treated samples were expressed relative to this (Table 3).

naïve CD4+ T cells = test: Human regulatory T cell differentiation assay; assay type: cell-based; conditions: 6 days
Experimental: Peripheral blood mononuclear cells (PBMCs) from whole blood donated by health volunteers were separated by Ficoll-Paque gradient centrifugation and naïve CD4^+ T cells were subsequently isolated using magnet beads (EasySep™ Human Naïve CD4^+ T Cell Isolation Kit, Cambridge, MA). For regulatory T cell (Treg) differentiation assay, naïve CD4^+ T cells were cultured (1-10×10^4 cells) in CTS OpTmizer medium for 6 days and stimulated with 5 ng/ml TGF-β, 100 U/ml IL-2, and ImmunoCult™ Human […] T Cell Activator; Stemcell #10990) with/without our Compounds. Cell viability was determined using a viability dye (eBioscience Fixable Viability Dye eFluor 780: ThermoFisher 65-0865-14) at 1:500 dilution. The cells were gated for Treg, defined as Live, CD11c^−, CD14^−, CD19^−, CD8^−, CD4^+, CD3^+, CD25^+, FOXP3^+. Percent (%) Tregs were calculated as percentage of CD4^+, CD25^+, FOXP3^+ cells over total CD4 T cells. Statistical analysis was performed with GraphPad Prism Software Using One-Way ANOVA.

neutrophil = test: Neutrophil chemokine production assay; assay type: cell-based, human; conditions: 12 h
Experimental: A volume 25 mL of human blood was layered over 15 mL of Histopaque®-1077 and centrifuged at 500 g, RT, for 30 min with no break applied to the centrifuge. The PBMC band and Histopaque®-1077 layer were removed leaving behind the bottom red layer which was mixed with 40 mL of 1× red blood cell (RBC) lysis buffer (Sigma-Aldrich) was and split into two 50 mL tubes. The volume for both fractions was brought to 50 mL with RBC lysis buffer, mixed by inversion, and then incubated at RT for 10 min. Solutions were centrifuged at 250 g, for 10 min at RT and the supernatant liquids removed. The reddish pellets were re-suspended in 1 mL of RBC lysis buffer and combined. The cell suspension was incubated for 5 min at RT in RBC lysis buffer. After incubation 45 mL of Hanks Balanced Salt Solution with no calcium, magnesium or phenol red (HBSS−) was added, the cell suspension was spun (250 g for 10 min at RT), and supernatant liquids were removed. The white pellet was re-suspended in 1 mL of HBSS−, and cell counts were determined. The neutrophil cell suspension was brought to a concentration of 1.11e6 cells/mL in RPMI complete (Sigma-Aldrich), and 180 μL of cell suspension was transferred to all wells within a sterile 96-well tissue culture treated plate resulting in 2.0e5 cells/well. […] After incubation, 10 μL of 2 μg/mL LPS solution in RPMI complete was added to each well except for control wells, which received an additional 10 μL of media. Cells were incubated for 12 h (37° C., 5% CO2), after which plates were centrifuged at 250 g, RT, for 5 min and supernatant liquids were obtained and stored at −80° C. until analyzed via Luminex® Multiplex Assay for various chemokines and cytokines. Three data points were acquired from two different blood donors and averaged.

Caco-2 colonocytes = test: Human Caco-2 barrier integrity assay (TEER); assay type: cell-based; conditions: 48 hours
Experimental: At 70-80% confluency, cells were trypsinized and seeded in 0.4 cm^2 transwell collagen I coated membranes with supplemented DMEM in both apical and basolateral compartments. Cells were seeded at a density of 200,000 cells per well and maintained for 10 days to form a polarized barrier with a TransEpithelial […] After 48 hours, TEER readings were taken again and viability was measured by CellTiter 96® AQueous One Solution Cell Proliferation Assay (Promega). The percent change in TEER over the 48 hours was determined and normalized to the 0.1% DMSO control (Table 6).

Cn1cc(C[C@H](N)C(=O)O)c2ccccc21 [1-methylindole-3-alanine]
Average CYP1A1 mRNA levels (AhR; 10.0 μM): + (+ = >2-fold Vehicle) | Average CYP1A1 mRNA levels (AhR; 100.0 μM): +++ (+++ = >10-fold Vehicle)

O=C(O)c1ccccc1 [Benzoic acid]
Average CYP1A1 mRNA levels (AhR; 10.0 μM): + (+ = >2-fold Vehicle) | Average CYP1A1 mRNA levels (AhR; 100.0 μM): + (+ = >2-fold Vehicle)

COC(=O)c1csc(C(=O)c2c[nH]c3ccccc23)n1 [ITE, 2-(1′H-indole-3′-carbonyl)-thiazole-4-carboxylic acid methyl ester]
Average CYP1A1 mRNA levels (AhR; 1.0 μM): +++ (+++ = >10-fold Vehicle)

O=C[C@H](O)[C@@H](O)[C@@H](O)CO [L-arabinose]
IL1β % DMSO control [1]: = ((=) 90%> <110% DMSO) | IL6 % DMSO control [1]: + ((+) 50%> <90% DMSO) | TNFα % of DMSO control [1]: + ((+) 50%> <90% DMSO) | Cell viability % DMSO (naïve CD4+ T cells; 0.5 mM): = (90%> <110%: =) | Cell viability % DMSO (naïve CD4+ T cells; 1 mM): = (90%> <110%: =) | % IL-8 (Vehicle + LPS = 100%) (neutrophil; 500.0 μM): − (− = >90% Vehicle) | % MIP-1α (Vehicle + LPS = 100%) (neutrophil; 500.0 μM): − (− = >90% Vehicle) | % MIP-1β (DMSO + LPS = 100%) (neutrophil; 500.0 μM): − (− = >90% Vehicle) | % IL-8 (Vehicle + LPS = 100%) (neutrophil; 1000.0 μM): − (− = >90% Vehicle) | % MIP-1α (Vehicle + LPS = 100%) (neutrophil; 1000.0 μM): − (− = >90% Vehicle) | % MIP-1β (DMSO + LPS = 100%) (neutrophil; 1000.0 μM): − (− = >90% Vehicle)

CC(=O)O [acetate]
% Change in TEER from DMSO (Caco-2 colonocytes; 1 mM + cytokines): − (<125%: −) | % Change in TEER from DMSO (Caco-2 colonocytes; 3 mM + cytokines): − (<125%: −) | IL1β % DMSO control [1]: = ((=) 90%> <110% DMSO) | IL6 % DMSO control [1]: = ((=) 90%> <110% DMSO) | TNFα % of DMSO control [1]: = ((=) 90%> <110% DMSO) | % IL-8 (Vehicle + LPS = 100%) (neutrophil; 500.0 μM): − (− = >90% Vehicle) | % MIP-1α (Vehicle + LPS = 100%) (neutrophil; 500.0 μM): + (+ = <90% Vehicle) | % MIP-1β (DMSO + LPS = 100%) (neutrophil; 500.0 μM): + (+ = <90% Vehicle) | % IL-8 (Vehicle + LPS = 100%) (neutrophil; 1000.0 μM): − (− = >90% Vehicle) | % MIP-1α (Vehicle + LPS = 100%) (neutrophil; 1000.0 μM): ++ (++ = <70%Vehicle) | % MIP-1β (DMSO + LPS = 100%) (neutrophil; 1000.0 μM): + (+ = <90% Vehicle) | % IL-8 (Vehicle + LPS = 100%) (neutrophil; 3000.0 μM): +++ (+++ = <50% Vehicle) | % MIP-1α (Vehicle + LPS = 100%) (neutrophil; 3000.0 μM): +++ (+++ = <50% Vehicle) | % MIP-1β (DMSO + LPS = 100%) (neutrophil; 3000.0 μM): +++ (+++ = <50% Vehicle)

CC(O)CCO (centres unmarked) [butanediol, 1,3-butanediol]
IL1β % DMSO control [1]: = ((=) 90%> <110% DMSO) | Average CYP1A1 mRNA levels (AhR; 500.0 μM): − (- = <2-fold Vehicle) | % IL-8 (Vehicle + LPS = 100%) (neutrophil; 100.0 μM): − (− = >90% Vehicle) | % MIP-1α (Vehicle + LPS = 100%) (neutrophil; 100.0 μM): − (− = >90% Vehicle) | % MIP-1β (DMSO + LPS = 100%) (neutrophil; 100.0 μM): + (+ = <90% Vehicle) | % IL-8 (Vehicle + LPS = 100%) (neutrophil; 500.0 μM): − (− = >90% Vehicle) | % MIP-1α (Vehicle + LPS = 100%) (neutrophil; 500.0 μM): − (− = >90% Vehicle) | % MIP-1β (DMSO + LPS = 100%) (neutrophil; 500.0 μM): + (+ = <90% Vehicle)

OCc1c[nH]c2ccccc12 [indole-3-carbinol]
Average CYP1A1 mRNA levels (AhR; 1000.0 μM): + (+ = >2-fold Vehicle)

c1ccc2[nH]ccc2c1 [indole]
Average CYP1A1 mRNA levels (AhR; 1000.0 μM): + (+ = >2-fold Vehicle)

CCC(=O)O [propionate]
IL1β % DMSO control [1]: + ((+) 50%> <90% DMSO) | % IL-8 (Vehicle + LPS = 100%) (neutrophil; 500.0 μM): − (− = >90% Vehicle) | % MIP-1α (Vehicle + LPS = 100%) (neutrophil; 500.0 μM): +++ (+++ = <50% Vehicle) | % MIP-1β (DMSO + LPS = 100%) (neutrophil; 500.0 μM): +++ (+++ = <50% Vehicle) | % IL-8 (Vehicle + LPS = 100%) (neutrophil; 1000.0 μM): ++ (++ = <70%Vehicle) | % MIP-1α (Vehicle + LPS = 100%) (neutrophil; 1000.0 μM): +++ (+++ = <50% Vehicle) | % MIP-1β (DMSO + LPS = 100%) (neutrophil; 1000.0 μM): +++ (+++ = <50% Vehicle) | % IL-8 (Vehicle + LPS = 100%) (neutrophil; 3000.0 μM): +++ (+++ = <50% Vehicle) | % MIP-1α (Vehicle + LPS = 100%) (neutrophil; 3000.0 μM): +++ (+++ = <50% Vehicle) | % MIP-1β (DMSO + LPS = 100%) (neutrophil; 3000.0 μM): +++ (+++ = <50% Vehicle)

O=c1c(O)c(-c2ccc(O)c(O)c2)oc2cc(O)cc(O)c12 [quercetin, reference compound]
IL1β % DMSO control [1]: + ((+) 50%> <90% DMSO) | Cell viability % DMSO (naïve CD4+ T cells; 100 nM): = (90%> <110%: =) | Cell viability % DMSO (naïve CD4+ T cells; 1 uM): = (90%> <110%: =) | % IL-8 (Vehicle + LPS = 100%) (neutrophil; 0.1 μM): − (− = >90% Vehicle) | % MIP-1α (Vehicle + LPS = 100%) (neutrophil; 0.1 μM): − (− = >90% Vehicle) | % MIP-1β (DMSO + LPS = 100%) (neutrophil; 0.1 μM): − (− = >90% Vehicle) | % IL-8 (Vehicle + LPS = 100%) (neutrophil; 1.0 μM): − (− = >90% Vehicle) | % MIP-1α (Vehicle + LPS = 100%) (neutrophil; 1.0 μM): − (− = >90% Vehicle) | % MIP-1β (DMSO + LPS = 100%) (neutrophil; 1.0 μM): − (− = >90% Vehicle)
